In US10131648B2, “Substituted benzothiophenyl derivatives as GPR40 agonists for the treatment of type II diabetes” (Janssen Pharmaceutica NV, priority 2014, dated 2018):
Values joined by “and” are separate entries in the source; they are usually repeats but may differ in a detail not shown here. Identical values can stand only once.

Target: human GPR40 (Homo sapiens (Human), UniProt O14842)
Test: GPR40 Calcium Flux Assay
Format: cell-based
Conditions: transfected HEK293 cells stably expressing human GPR40; Ca2+ mobilization; mean data; read-out: hGPR40 Ca^2+ Assay EC50
Description: Compounds were tested in a calcium flux assay using transfected HEK293 cells stably expressing either human GPR40 or rat GPR40. Human GPR40 expressing cells were cultured in DMEM-High Glucose media supplemented with 10% fetal bovine serum, 1×L-Glutamine, 1×Penicillin/Streptomycin and 500 μg/mL G418. Rat GPR40 expressing cells were cultured in DMEM-High Glucose media supplemented with 10% fetal bovine serum and 1 μg/mL puromycin. Cells were plated into poly-D-lysine coated 384-well plates and cultured overnight in a 37° C. humidified tissue culture incubator under 5% CO2/[…] atmosphere. On the day of the experiment, the culture media was replaced with assay buffer (HBSS, 20 mM HEPES, 0.1% BSA) and the cells incubated at 37° C. for 1 h. Calcium-sensitive fluorescent dye (Fluo 8 No-Wash Calcium Dye, ABD Bioquest) was then added and the cells incubated for another 30 min at 37° C. followed by 15 min at room temperature while protected from the light. The cell plate and a plate of diluted compounds of Formula (I) were loaded into a fluorescent plate reader that added compounds onto the cells while measuring the fluorescence intensity of each well. The plate reader recorded fluorescence intensity at 1 second intervals for 8 min and provided the data for analysis in an Excel format. EC50 values were calculated using Prism (GraphPad) software.

Chain of human GPR40 (O14842 whole entry): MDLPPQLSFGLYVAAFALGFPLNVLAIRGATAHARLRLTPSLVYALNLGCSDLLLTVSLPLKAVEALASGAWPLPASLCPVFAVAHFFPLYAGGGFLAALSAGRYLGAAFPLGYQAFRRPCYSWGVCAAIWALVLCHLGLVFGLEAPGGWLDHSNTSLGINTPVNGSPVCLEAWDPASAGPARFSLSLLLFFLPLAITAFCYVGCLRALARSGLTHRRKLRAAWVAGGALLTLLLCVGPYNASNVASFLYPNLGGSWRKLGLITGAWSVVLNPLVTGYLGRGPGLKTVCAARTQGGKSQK

Row | SMILES | EC50
1 | CC#CC(CC(=O)O)c1ccc(OCc2ccc3scc(-c4ccc(OCC5(C)CS(=O)(=O)C5)cc4C)c3c2)nc1 (stereo not shown) [Cpd 64, 3-(6-((3-(2-Methyl-4-((3-methyl-1,1-dioxidothietan-3-yl)methoxy)phenyl)benzo[b]thiophen-5-yl)methoxy)pyridin-3-yl)hex-4-ynoic acid] | 0.021 µM
2 | CC#C[C@@H](CC(=O)O)c1ccc(OCc2ccc3scc(-c4cc(OCCOC)ccc4C)c3c2)cc1 [Cpd 65, (3S)-3-[4-([3-[5-(2-Methoxyethoxy)-2-methylphenyl]-1-benzothiophen-5-yl]methoxy)phenyl]hex-4-ynoic acid] | 0.011 µM
3 | CC#C[C@@H](CC(=O)O)c1ccc(OCc2ccc3scc(-c4c(C)cccc4OCCOC)c3c2)cc1 [Cpd 66, (3S)-3-[4-([3-[2-(2-Methoxyethoxy)-6-methylphenyl]-1-benzothiophen-5-yl]methoxy)phenyl]hex-4-ynoic acid] | 0.014 µM
4 | CC#C[C@@H](CC(=O)O)c1ccc(OCc2ccc3scc(-c4cccc(OCCOC)c4C)c3c2)cc1 [Cpd 67, (3S)-3-[4-([3-[3-(2-Methoxyethoxy)-2-methylphenyl]-1-benzothiophen-5-yl]methoxy)phenyl]hex-4-ynoic acid] | 0.009 µM
5 | CC#C[C@@H](CC(=O)O)c1ccc(OCc2ccc3scc(-c4ccccc4OCCOC)c3c2)cc1 [Cpd 68, (3S)-3-[4-([3-[2-(2-Methoxyethoxy)phenyl]-1-benzothiophen-5-yl]methoxy)phenyl]hex-4-ynoic acid] | 0.019 µM
6 | CC#C[C@H](CC(=O)O)c1ccc(OCc2ccc3scc(-c4ccc(OCCC(C)(C)O)cc4C)c3c2)nc1 [Cpd 70, (3S)-3-(6-((3-(4-(3-Hydroxy-3-methylbutoxy)-2-methylphenyl)benzo[b]thiophen-5-yl)methoxy)pyridin-3-yl)hex-4-ynoic acid] | 0.5 µM
7 | CC#C[C@@H](CC(=O)O)c1ccc(OCc2ccc3scc(-c4ccc(OCCC(C)(C)O)cc4C)c3c2)nc1 [Cpd 71, (3R)-3-(6-((3-(4-(3-Hydroxy-3-methylbutoxy)-2-methylphenyl)benzo[b]thiophen-5-yl)methoxy)pyridin-3-yl)hex-4-ynoic acid] | 0.012 µM
8 | CC#C[C@H](CC(=O)O)c1ccc(OCc2ccc3scc(-c4ccc(OCC5CCOCC5)cc4C)c3c2)nc1 [Cpd 72, (3S)-3-(6-((3-(2-Methyl-4-((tetrahydro-2H-pyran-4-yl)methoxy)phenyl)benzo[b]thiophen-5-yl)methoxy)pyridin-3-yl)hex-4-ynoic acid] | 1.33 µM
9 | CC#C[C@@H](CC(=O)O)c1ccc(OCc2ccc3scc(-c4ccc(OCC5CCOCC5)cc4C)c3c2)nc1 [Cpd 73, (3R)-3-(6-((3-(2-Methyl-4-((tetrahydro-2H-pyran-4-yl)methoxy)phenyl)benzo[b]thiophen-5-yl)methoxy)pyridin-3-yl)hex-4-ynoic acid] | 0.013 µM
10 | CC#C[C@H](CC(=O)O)c1ccc(OCc2ccc3scc(-c4ccc(OCC5CCS(=O)(=O)CC5)cc4C)c3c2)nc1 [Cpd 74, (3S)-3-(6-((3-(4-((1,1-Dioxidotetrahydro-2H-thiopyran-4-yl)methoxy)-2-methylphenyl)benzo[b]thiophen-5-yl)methoxy)pyridin-3-yl)hex-4-ynoic acid] | 0.18 µM
11 | CC#C[C@@H](CC(=O)O)c1ccc(OCc2ccc3scc(-c4ccc(OCC5CCS(=O)(=O)CC5)cc4C)c3c2)nc1 [Cpd 75, (3R)-3-(6-((3-(4-((1,1-Dioxidotetrahydro-2H-thiopyran-4-yl)methoxy)-2-methylphenyl)benzo[b]thiophen-5-yl)methoxy)pyridin-3-yl)hex-4-ynoic acid] | 0.007 µM
12 | CC#C[C@H](CC(=O)O)c1ccc(OCc2ccc3scc(-c4ccc(OCCOC)cc4C)c3c2)nc1 [Cpd 76, (3S)-3-(6-((3-(4-(2-Methoxyethoxy)-2-methylphenyl)benzo[b]thiophen-5-yl)methoxy)pyridin-3-yl)hex-4-ynoic acid] | 0.83 µM
13 | CC#C[C@@H](CC(=O)O)c1ccc(OCc2ccc3scc(-c4ccc(OCCOC)cc4C)c3c2)nc1 [Cpd 77, (3R)-3-(6-((3-(4-(2-Methoxyethoxy)-2-methylphenyl)benzo[b]thiophen-5-yl)methoxy)pyridin-3-yl)hex-4-ynoic acid] | 0.016 µM and 0.006 µM and 0.005 µM
14 | CC#C[C@@H](CC(=O)O)c1ccc(OCc2ccc3scc(-c4cccnc4OC)c3c2)cc1 [Cpd 78, (3S)-3-(4-((3-(2-Methoxypyridin-3-yl)benzo[b]thiophen-5-yl)methoxy)phenyl)hex-4-ynoic acid] | 0.009 µM
15 | CC#C[C@@H](CC(=O)O)c1ccc(OCc2ccc3scc(-c4ccccc4OC)c3c2)cc1 [Cpd 79, (3S)-3-(4-((3-(2-Methoxyphenyl)benzo[b]thiophen-5-yl)methoxy)phenyl)hex-4-ynoic acid] | 0.028 µM
16 | CC#C[C@@H](CC(=O)O)c1ccc(OCc2ccc3scc(-c4ccc(OC)nc4C)c3c2)cc1 [Cpd 80, (3S)-3-(4-((3-(6-Methoxy-2-methylpyridin-3-yl)benzo[b]thiophen-5-yl)methoxy)phenyl)hex-4-ynoic acid] | 0.02 µM

Row | SMILES | EC50
17 | CC#C[C@@H](CC(=O)O)c1ccc(OCc2ccc3scc(-c4cnccc4OC)c3c2)cc1 [Cpd 81, (3S)-3-(4-((3-(4-Methoxypyridin-3-yl)benzo[b]thiophen-5-yl)methoxy)phenyl)hex-4-ynoic acid] | 0.011 µM
18 | CC#C[C@@H](CC(=O)O)c1ccc(OCc2ccc3scc(-c4cnc(OC)cc4C)c3c2)cc1 [Cpd 82, (3S)-3-(4-((3-(6-Methoxy-4-methylpyridin-3-yl)benzo[b]thiophen-5-yl)methoxy)phenyl)hex-4-ynoic acid] | 0.037 µM
19 | CC#C[C@@H](CC(=O)O)c1ccc(OCc2ccc3scc(-c4ccncc4OC)c3c2)cc1 [Cpd 83, (3S)-3-(4-((3-(3-Methoxypyridin-4-yl)benzo[b]thiophen-5-yl)methoxy)phenyl)hex-4-ynoic acid] | 0.01 µM
20 | CC#C[C@@H](CC(=O)O)c1ccc(OCc2ccc3scc(-c4ncc(OC)cc4C)c3c2)cc1 [Cpd 84, (3S)-3-(4-((3-(5-Methoxy-3-methylpyridin-2-yl)benzo[b]thiophen-5-yl)methoxy)phenyl)hex-4-ynoic acid] | 0.052 µM
21 | CC#C[C@@H](CC(=O)O)c1ccc(OCc2ccc3scc(-c4ccccc4C)c3c2)nc1 [Cpd 85, (3R)-3-[6-[[3-(2-Methylphenyl)benzo[b]thiophen-5-yl]methoxy]pyridin-3-yl]hex-4-ynoic acid] | 0.007 µM and 0.006 µM
22 | CC#C[C@@H](CC(=O)O)c1ccc(COc2ccc3scc(-c4ccc(OC5CCOC5)cc4C)c3c2)cc1 (stereo partly drawn) [Cpd 86, (3S)-3-[4-[([3-[2-Methyl-4-(tetrahydrofuran-3-yloxy)phenyl]-1-benzothiophen-5-yl]oxy)methyl]phenyl]hex-4-ynoic acid] | 0.008 µM
23 | CC#C[C@@H](CC(=O)O)c1ccc(OCc2ccc3scc(-c4cc(OCCOC)ccc4C)c3c2)nc1 [Cpd 87, (3R)-3-(6-((3-(5-(2-Methoxyethoxy)-2-methylphenyl)benzo[b]thiophen-5-yl)methoxy)pyridin-3-yl)hex-4-ynoic acid] | 0.011 µM
24 | CC#C[C@@H](CC(=O)O)c1ccc(OCc2ccc3scc(-c4cccc(OCCOC)c4C)c3c2)nc1 [Cpd 88, (3R)-3-(6-((3-(3-(2-Methoxyethoxy)-2-methylphenyl)benzo[b]thiophen-5-yl)methoxy)pyridin-3-yl)hex-4-ynoic acid] | 0.008 µM
25 | CC#C[C@@H](CC(=O)O)c1ccc(OCc2ccc3scc(-c4ncc(OCCOC)cc4C)c3c2)nc1 [Cpd 89, (3R)-3-(6-((3-(5-(2-Methoxyethoxy)-3-methylpyridin-2-yl)benzo[b]thiophen-5-yl)methoxy)pyridin-3-yl)hex-4-ynoic acid] | 0.02 µM
26 | CC#C[C@@H](CC(=O)O)c1ccc(OCc2ccc3scc(-c4cc(Cl)ncc4C)c3c2)nc1 [Cpd 90, (3R)-3-(6-((3-(2-Chloro-5-methylpyridin-4-yl)benzo[b]thiophen-5-yl)methoxy)pyridin-3-yl)hex-4-ynoic acid] | 0.015 µM
27 | CC#C[C@@H](CC(=O)O)c1ccc(OCc2ccc3scc(-c4ncccc4OC)c3c2)cc1 [Cpd 91, (3S)-3-(4-((3-(3-Methoxypyridin-2-yl)benzo[b]thiophen-5-yl)methoxy)phenyl)hex-4-ynoic acid] | 0.017 µM
28 | CC#C[C@@H](CC(=O)O)c1ccc(OCc2ccc3scc(-c4cc(OCCOC)cnc4C)c3c2)nc1 [Cpd 92, (3R)-3-(6-((3-(5-(2-Methoxyethoxy)-2-methylpyridin-3-yl)benzo[b]thiophen-5-yl)methoxy)pyridine-3-yl)hex-4-ynoic acid] | 0.013 µM
29 | CC#C[C@@H](CC(=O)O)c1ccc(OCc2ccc3scc(-c4nc(Cl)ccc4C)c3c2)cc1 [Cpd 93, (3S)-3-(4-((3-(6-Chloro-3-methylpyridin-2-yl)benzo[b]thiophen-5-yl)methoxy)phenyl)hex-4-ynoic acid] | 0.015 µM
30 | CC#C[C@@H](CC(=O)O)c1ccc(OCc2ccc3scc(-c4nc(OC)ccc4C)c3c2)cc1 [Cpd 94, (3S)-3-(4-((3-(6-Methoxy-3-methylpyridin-2-yl)benzo[b]thiophen-5-yl)methoxy)phenyl)hex-4-ynoic acid] | 0.015 µM
31 | CC#C[C@@H](CC(=O)O)c1ccc(OCc2ccc3scc(-c4ccc(CC5CCNCC5)cc4C)c3c2)cc1 [Cpd 95, (3S)-3-(4-((3-(2-Methyl-4-(piperidin-4-ylmethyl)phenyl)benzo[b]-thiophen-5-yl)methoxy)phenyl)hex-4-ynoic acid] | 0.004 µM
